According to paper PMC2248166, “Quantitative peptide binding motifs for 19 human and mouse MHC class I molecules derived using positional scanning combinatorial peptide libraries” (Immunome Research, 2008):

What was measured:
Type in all cases: binding
HLA B*5801 = HLA B*5801 (Homo sapiens, UniProt P01889, A329T/C349S/D201E/D98Y/E176V/E187L/E204Q/E69T/G107R/I218V/I90N/K202T/L105A/L119I/N104I/N87E/Q89R/Q94S/R106L/R155S/R180L/R86G/S101N/S121R/S35A/S48A/T118I/V127L/V306I/V36M/Y140S/Y91M)
H-2 K^d = H-2 K^d (Mus musculus, UniProt P01902)
Sequence of H-2 K^d (P01887 21-119): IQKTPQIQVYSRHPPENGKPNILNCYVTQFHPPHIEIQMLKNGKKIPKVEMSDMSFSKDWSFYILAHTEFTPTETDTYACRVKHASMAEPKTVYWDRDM
Sequence of H-2 K^d (P01902 22-368): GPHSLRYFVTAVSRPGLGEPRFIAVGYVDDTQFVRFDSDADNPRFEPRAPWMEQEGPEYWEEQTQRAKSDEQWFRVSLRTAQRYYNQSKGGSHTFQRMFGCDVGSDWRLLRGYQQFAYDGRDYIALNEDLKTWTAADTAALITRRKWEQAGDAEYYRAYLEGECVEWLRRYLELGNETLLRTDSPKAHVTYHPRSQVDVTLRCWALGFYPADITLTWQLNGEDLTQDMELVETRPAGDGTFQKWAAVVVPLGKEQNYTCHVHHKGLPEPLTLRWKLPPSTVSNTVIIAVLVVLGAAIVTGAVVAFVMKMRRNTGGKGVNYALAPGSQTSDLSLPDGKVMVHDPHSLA

HLA A*3001 = HLA A*3001 (Homo sapiens, UniProt P04439, D140H/D185E/E176W/F33S/G80R/H175R/K168Q/R138E/R41S); assay: biochemical
H-2 D^b = H-2 D^b (Mus musculus, UniProt P01899)
Sequence of H-2 D^b (P01887 21-119): as the sequence (P01887 21-119) above
Sequence of H-2 D^b (P01899 25-362): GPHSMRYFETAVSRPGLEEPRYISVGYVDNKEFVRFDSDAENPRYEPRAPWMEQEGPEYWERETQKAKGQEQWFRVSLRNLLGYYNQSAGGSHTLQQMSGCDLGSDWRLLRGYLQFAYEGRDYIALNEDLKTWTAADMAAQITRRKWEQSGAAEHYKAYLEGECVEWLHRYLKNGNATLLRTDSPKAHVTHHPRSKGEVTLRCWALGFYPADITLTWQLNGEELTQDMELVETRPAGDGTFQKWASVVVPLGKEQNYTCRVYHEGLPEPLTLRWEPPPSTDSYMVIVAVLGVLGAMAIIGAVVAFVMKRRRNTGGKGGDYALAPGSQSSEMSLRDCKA

HLA B*5802 = HLA B*5802 (Homo sapiens, UniProt P01889, A329T/C349S/D201E/D98Y/E176V/E187L/E204Q/E69T/G107R/I218V/I90N/K202T/L105A/N104I/N87E/Q89R/Q94S/R106L/R155S/R180L/R86G/S101N/S121W/S35A/S48A/V127L/V306I/V36M/Y140S/Y91M)
HLA B*1503 = HLA B*1503 (Homo sapiens, UniProt P01889, A329T/A93T/A95T/C349S/D201E/D98Y/E187L/E204Q/K202T/N87E/Q94N/R155S/R180L/S121R/S35A/V306I/V36M/Y140S/Y91S); assay: biochemical
HLA B*5101 = HLA B*5101 (Homo sapiens, UniProt P01889, A329T/A93T/A95T/C349S/D138N/D201E/D98Y/E187L/E204Q/E69T/G107R/I218V/K202T/L105A/L119W/N104I/Q94N/R106L/R155S/R180L/S101N/S121T/S35A/S48A/V306I/V36M/Y195H/Y91F)
HLA A*6802 = HLA A*6802 (Homo sapiens, UniProt P04439, A269V/D140Y/D185E/E176V/E277Q/E87N/F33Y/G231S/I121R/I166T/I218V/L180W/L300P/L318F/N151K/P208A/P217A/Q86R/R138H/R169H/S129P/T345S/V36M)
HLA B*1501 = HLA B*1501 (Homo sapiens, UniProt P01889, A329T/A93T/A95T/C349S/D201E/D98Y/E187L/E204Q/E69M/E70A/K202T/N87E/Q94N/R155S/R180W/S121R/S35A/S48A/V306I/V36M/Y140S/Y91S); assay: biochemical
HLA B*0801 = HLA B*0801 (Homo sapiens, UniProt P01889, A93T/A95T/D138N/E176V/E187T/K202T/Q94N/R180D/S35A/V36M/Y33D/Y91F); assay: biochemical
HLA A*3201 = HLA A*3201 (Homo sapiens, UniProt P04439, A270S/D101S/D185E/E176V/E277Q/F133L/G103R/G107R/G231S/H175R/I121M/I218V/I322F/K168Q/L105A/L300P/L318F/M331R/P208A/P217A/Q94H/R106L/R138Q/S129P/T104I/T323A/T345S/V100E/V321M/V358M); assay: biochemical
H-2 D^d = H-2 D^d (Mus musculus, UniProt P01900)
Sequence of H-2 D^d (P01900 whole entry, looked up): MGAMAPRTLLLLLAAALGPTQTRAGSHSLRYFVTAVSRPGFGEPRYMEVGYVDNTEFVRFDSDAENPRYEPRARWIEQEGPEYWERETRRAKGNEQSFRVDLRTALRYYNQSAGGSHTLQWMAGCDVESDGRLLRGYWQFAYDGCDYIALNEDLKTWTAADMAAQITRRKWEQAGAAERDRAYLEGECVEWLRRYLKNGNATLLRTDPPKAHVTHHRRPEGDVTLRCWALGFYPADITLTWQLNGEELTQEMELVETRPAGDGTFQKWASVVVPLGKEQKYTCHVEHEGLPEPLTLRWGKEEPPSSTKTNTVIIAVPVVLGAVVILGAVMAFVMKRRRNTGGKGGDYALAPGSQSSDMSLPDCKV

HLA B*5301 = HLA B*5301 (Homo sapiens, UniProt P01889, A329T/A93T/A95T/C349S/D201E/D98Y/E176V/E187L/E204Q/E69T/G107R/I218V/K202T/L105A/L119I/N104I/Q94N/R106L/R155S/R180L/S101N/S121R/S35A/S48A/T118I/V127L/V306I/V36M/Y140S/Y91F)
HLA B*5401 = HLA B*5401 (Homo sapiens, UniProt P01889, A329T/C349S/D138N/D201E/E176V/E187T/E204Q/E69G/I76V/K202T/L119W/R155S/R180L/S121T/S35A/S48A/V127L/V306I/V36M/Y140L)
H-2 K^k = H-2 K^k (Mus musculus, UniProt P04223)
Sequence of H-2 K^k (P01887 21-119): as the sequence (P01887 21-119) above
Sequence of H-2 K^k (P04223 22-369): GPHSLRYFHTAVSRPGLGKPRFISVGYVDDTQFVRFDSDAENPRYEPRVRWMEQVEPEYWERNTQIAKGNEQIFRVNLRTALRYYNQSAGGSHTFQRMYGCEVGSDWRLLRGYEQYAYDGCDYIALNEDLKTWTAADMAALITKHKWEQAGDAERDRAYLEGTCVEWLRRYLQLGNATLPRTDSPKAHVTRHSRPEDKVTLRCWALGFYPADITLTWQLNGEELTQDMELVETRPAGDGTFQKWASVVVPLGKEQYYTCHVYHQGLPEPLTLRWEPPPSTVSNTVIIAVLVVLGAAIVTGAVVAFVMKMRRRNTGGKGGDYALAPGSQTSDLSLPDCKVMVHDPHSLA

HLA B*3501 = HLA B*3501 (Homo sapiens, UniProt P01889, A329T/A93T/A95T/C349S/D201E/D98Y/E176V/E187L/E204Q/E69T/I218V/K202T/L119I/Q94N/R155S/R180L/S121R/S35A/S48A/T118I/V127L/V306I/V36M/Y140S/Y91F)

Sequence	Normalized average relative binding affinity(ARB) (HLA B*5801)	Normalized average relative binding affinity(ARB) (H-2 K^d)	Normalized average relative binding affinity(ARB) (HLA A*3001)	Normalized average relative binding affinity(ARB) (H-2 D^b)	Normalized average relative binding affinity(ARB) (HLA B*5802)	Normalized average relative binding affinity(ARB) (HLA B*1503)	Normalized average relative binding affinity(ARB) (HLA B*5101)	Normalized average relative binding affinity(ARB) (HLA A*6802)	Normalized average relative binding affinity(ARB) (HLA B*1501)	Normalized average relative binding affinity(ARB) (HLA B*0801)	Normalized average relative binding affinity(ARB) (HLA A*3201)	Normalized average relative binding affinity(ARB) (H-2 D^d)	Normalized average relative binding affinity(ARB) (HLA B*5301)	Normalized average relative binding affinity(ARB) (HLA B*5401)	Normalized average relative binding affinity(ARB) (H-2 K^k)	Normalized average relative binding affinity(ARB) (HLA B*3501)
XXXXXXXEX [3064.0144]	0.18	0.55	0.12	0.33	0.30	0.11	0.34	0.14	0.23	0.24	0.27	0.65	0.10	0.13	0.46	0.098
XXXXCXXXX [3064.0082]	0.14	0.19	0.12	0.060	0.53	0.62	0.38	0.65	0.87	0.020	0.15	0.045	0.13	0.39	0.095	0.37
XXXXXRXXX [3064.0115]	0.25	1.0	0.21	0.50	0.36	0.51	0.27	0.43	0.13	0.15	0.36	0.42	0.095	0.11	0.39	0.088
XXXXXHXXX [3064.0107]	0.40	0.31	0.16	0.36	0.27	0.25	0.33	0.11	0.28	0.12	0.50	0.48	0.30	1.0	0.20	0.26
XXXXXYXXX [3064.0120]	1.0	0.26	0.21	0.68	0.64	0.40	0.097	0.43	0.20	0.0094	0.38	0.83	1.0	0.19	0.35	0.061
XXXQXXXXX [3064.0074]	0.46	0.42	0.65	0.61	0.31	0.83	0.57	0.18	0.96	0.90	0.32	0.49	0.26	0.093	0.63	0.088
